Laboratory results reported in patent US20220089575A1, “FARNESOID X RECEPTOR AGONISTS AND USES THEREOF” (Metacrine, Inc., priority 2017, published 2022).

molecular target: T1, hFXR (Homo sapiens, UniProt Q96RI1); test: In Vitro FXR Assay (TK): TK-ECRE-luc reporter in transfected CV-1 cells; format: cell-based; details: 18 hrs, luminescence, maximum efficacy of <25% of the Fexarmine control classified as '+'
T1 construct: expressed in transfected cells; host or cells: CV-1 cells
T1 sequence (Q96RI1 1-486): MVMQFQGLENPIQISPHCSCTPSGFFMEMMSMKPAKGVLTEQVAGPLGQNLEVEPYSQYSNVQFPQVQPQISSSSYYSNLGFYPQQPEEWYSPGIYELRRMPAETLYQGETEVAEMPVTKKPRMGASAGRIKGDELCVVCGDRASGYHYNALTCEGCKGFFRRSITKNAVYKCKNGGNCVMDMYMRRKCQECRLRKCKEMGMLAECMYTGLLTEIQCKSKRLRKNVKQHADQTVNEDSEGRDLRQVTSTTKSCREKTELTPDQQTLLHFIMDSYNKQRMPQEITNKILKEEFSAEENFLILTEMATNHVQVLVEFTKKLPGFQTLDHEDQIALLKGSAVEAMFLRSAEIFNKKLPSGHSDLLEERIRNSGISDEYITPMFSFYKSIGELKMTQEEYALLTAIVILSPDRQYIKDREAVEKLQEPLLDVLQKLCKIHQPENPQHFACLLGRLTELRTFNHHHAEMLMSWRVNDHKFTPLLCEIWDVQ
T1 sequence (P19793 1-462 partner): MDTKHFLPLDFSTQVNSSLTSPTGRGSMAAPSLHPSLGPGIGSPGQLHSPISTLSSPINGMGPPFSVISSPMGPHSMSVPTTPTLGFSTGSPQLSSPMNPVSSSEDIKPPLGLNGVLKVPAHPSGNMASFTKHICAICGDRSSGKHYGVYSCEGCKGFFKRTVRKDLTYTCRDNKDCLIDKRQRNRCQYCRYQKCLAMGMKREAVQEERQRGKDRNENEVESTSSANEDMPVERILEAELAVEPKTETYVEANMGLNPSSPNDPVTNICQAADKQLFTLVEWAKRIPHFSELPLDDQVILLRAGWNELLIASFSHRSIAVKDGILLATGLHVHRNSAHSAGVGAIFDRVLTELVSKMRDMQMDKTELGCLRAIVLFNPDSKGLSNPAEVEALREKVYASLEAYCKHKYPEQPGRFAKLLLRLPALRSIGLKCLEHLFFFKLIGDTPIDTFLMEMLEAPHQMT
In short: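 Cells are seeded in charcoal double-stripped FBS medium, transfected overnight with FXR/RXR expression and ECRE-driven luciferase reporter plasmids, then treated with serially diluted compounds for 18 h. Lysates are measured for luciferase light output.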

Row | Structure (SMILES) | EC50
1 | COc1ccc([C@H]2CC[C@H](CN(c3cc(-c4cnn(C(C)C)c4)ccn3)C(=O)[C@H]3CC[C@H](NC(=O)CO)CC3)CC2)cc1C [Compound 26.35, trans-4-(2-Hydroxyacetamido)-N-(4-(1-isopropyl-1H-pyrazol-4-yl)pyridin-2-yl)-N-((trans-4-(4-methoxy-3-methylphenyl)cyclohexyl)methyl) cyclohexanecarboxamide] | ≤ 250 nM
2 | COc1ccc([C@H]2CC[C@H](CN(c3cccc(-c4cnn(C5CC5)c4)c3)C(=O)[C@H]3CC[C@H](OC(=O)N4CC(SC)C4)CC3)CC2)cc1C [Compound 6.30, trans-4-((3-(1-Cyclopropyl-1H-pyrazol-4-yl)phenyl)((trans-4-(4-methoxy-3-methylphenyl)cyclohexyl)methyl)carbamoyl)cyclohexyl 3-(methylthio) azetidine-1-carboxylate] | ≤ 250 nM
3 | COc1ccc([C@H]2CC[C@H](CN(c3cc(-c4coc(C5CC5)n4)ccn3)C(=O)[C@H]3CC[C@H](OC(=O)N4CC(N(C)C)C4)CC3)CC2)nc1C [Compound 7.79, trans-4-((4-(2-Cyclopropyloxazol-4-yl)pyridine-2-yl)((trans-4-(5-methoxy-6-methylpyridin-2-yl)cyclohexyl)methyl)carbamoyl)cyclohexyl 3-(dimethylamino)azetidine-1-carboxylate] | ≤ 250 nM
4 | COC(=O)C1CN(C(=O)O[C@H]2CC[C@H](C(=O)N(C[C@H]3CC[C@H](c4ccc(OC)c(C)c4)CC3)c3cccc(-c4cnn(C5CC5)c4)c3)CC2)C1 [Compound 7.34, 1-(trans-4-((3-(1-Cyclopropyl-1H-pyrazol-4-yl)phenyl)((trans-4-(4-methoxy-3-methylphenyl)cyclohexyl)methyl)carbamoyl)cyclohexyl) 3-methylazetidine-1,3-dicarboxylate] | ≤ 250 nM
5 | Cn1nc(F)c2cc([C@H]3CC[C@H](CN(c4cccc(-c5cnc(C6CC6)s5)c4)C(=O)[C@H]4CC[C@H](C(=O)O)CC4)CC3)ccc21 [Compound 17.04, trans-4-((3-(2-Cyclopropylthiazol-5-yl)phenyl)((trans-4-(3-fluoro-1-methyl-1H-indazol-5-yl)cyclohexyl)methyl)carbamoyl) cyclohexanecarboxylic acid] | ≤ 250 nM
6 | COc1ccc([C@H]2CC[C@H](CN(c3cc(-c4coc(C5CC5)n4)ccn3)C(=O)[C@H]3CC[C@H](OC(=O)NCC(O)C(C)C)CC3)CC2)nc1C (stereo partly drawn) [Compound 6.89, trans-4-((4-(2-Cyclopropyloxazol-4-yl)pyridin-2-yl)((trans-4-(5-methoxy-6-methylpyridin-2-yl)cyclohexyl)methyl)carbamoyl)cyclohexyl (2-hydroxy-3-methylbutyl)carbamate] | ≤ 250 nM
7 | Cn1nc(F)c2cc([C@H]3CC[C@H](CN(c4cccc(-c5cnn(C6CC6)c5)c4)C(=O)[C@H]4CC[C@H](C(=O)O)CC4)CC3)ccc21 [Compound 17.16, trans-4-((3-(1-Cyclopropyl-1H-pyrazol-4-yl)phenyl)((trans-4-(3-fluoro-1-methyl-1H-indazol-5-yl)cyclohexyl)methyl)carbamoyl) cyclohexanecarboxylic acid] | ≤ 250 nM
8 | CCOC(=O)C[C@H]1CC[C@H](C(=O)N(C[C@H]2CC[C@H](c3ccc(OC)c(C)n3)CC2)c2cc(-c3cnn(C4CC4)c3)ccn2)CC1 [Compound 18.18, Ethyl 2-(trans-4-((4-(1-cyclopropyl-1H-pyrazol-4-yl)pyridin-2-yl)((trans-4-(5-methoxy-6-methylpyridin-2-yl)cyclohexyl)methyl)carbamoyl)cyclohexyl)acetate] | ≤ 250 nM
9 | COc1ccc([C@H]2CC[C@H](CN(c3cccc(-c4coc(C(C)C)n4)c3)C(=O)[C@H]3CC[C@H](CC(=O)O)CC3)CC2)cc1C [Compound 21.08, 2-(trans-4-((3-(2-lsopropyloxazol-4-yl)phenyl)((trans-4-(4-methoxy-3-methylphenyl)cyclohexyl)methyl)carbamoyl)cyclohexyl)acetic acid] | ≤ 250 nM
10 | COc1ccc([C@H]2CC[C@H](CN(c3cccc(-c4cnn(C(C)C)c4)c3)C(=O)[C@H]3CC[C@H](CCC(=O)O)CC3)CC2)cc1C [Compound 20.16, 3-(trans-4-((3-(1-Isopropyl-1H-pyrazol-4-yl)phenyl)((trans-4-(4-methoxy-3-methylphenyl)cyclohexyl)methyl)carbamoyl)cyclohexyl)propanoic acid] | ≤ 250 nM
11 | CCOC(=O)C[C@H]1CC[C@H](C(=O)N(C[C@H]2CC[C@H](c3ccc(OC)c(C#N)n3)CC2)c2cc(-c3cnn(C(C)C)c3)ccn2)CC1 [Compound 18.22, Ethyl 2-(trans-4-(((trans-4-(6-cyano-5-methoxypyridin-2-yl)cyclohexyl)methyl)(4-(1-isopropyl-1H-pyrazol-4-yl)pyridin-2-yl)carbamoyl)cyclohexyl) acetate] | ≤ 250 nM
12 | COC(=O)[C@H]1CC[C@H](C(=O)N(C[C@H]2CC[C@H](c3ccc(N(C)C)nc3)CC2)c2cccc(-c3cnc(C4CC4)s3)c2)CC1 [Compound 18.08, trans-Methyl 4-((3-(2-cyclopropylthiazol-5-yl)phenyl)((trans-4-(6-(dimethylamino)pyridin-3-yl)cyclohexyl)methyl)carbamoyl) cyclohexanecarboxylate] | ≤ 250 nM
13 | CNC(=O)O[C@H]1CC[C@H](C(=O)N(C[C@H]2CC[C@H](c3ccc(OC)c(C)n3)CC2)c2cccc(-c3coc(C(C)C)n3)c2)CC1 [Compound 5.31, trans-4-((3-(2-Isopropyloxazol-4-yl)phenyl)((trans-4-(5-methoxy-6-methylpyridin-2-yl)cyclohexyl)methyl)carbamoyl)cyclohexyl methylcarbamate] | ≤ 250 nM
14 | COc1ccc([C@H]2CC[C@H](CN(c3cc(-c4coc(C(C)C)n4)ccn3)C(=O)[C@H]3CC[C@H](CC(=O)O)CC3)CC2)cc1C [Compound 21.09, 2-(trans-4-((4-(2-Isopropyloxazol-4-yl)pyridin-2-yl)((trans-4-(4-methoxy-3-methylphenyl)cyclohexyl)methyl)carbamoyl)cyclohexyl)acetic acid] | ≤ 250 nM
15 | COc1ccc([C@H]2CC[C@H](CN(c3cccc(-c4coc(C5CC5)n4)c3)C(=O)[C@H]3CC[C@H](OC(=O)N4CC(O)C4)CC3)CC2)cc1C [Compound 7.62, trans-4-((3-(2-Cyclopropyloxazol-4-yl)phenyl)((trans-4-(4-methoxy-3-methylphenyl)cyclohexyl)methyl)carbamoyl)cyclohexyl 3-hydroxyazetidine-1-carboxylate] | ≤ 250 nM
16 | COc1ccc([C@H]2CC[C@H](CN(c3cccc(-c4cnc(C5CC5)s4)c3)C(=O)[C@H]3CC[C@H](C(=O)O)CC3)CC2)cc1C#N [Compound 17.11, trans-4-(((trans-4-(3-Cyano-4-methoxyphenyl)cyclohexyl)methyl)(3-(2-4-cyclopropylthiazol-5-yl)phenyl)carbamoyl)cyclohexanecarboxylic acid] | ≤ 250 nM
17 | COc1ccc([C@H]2CC[C@H](CN(c3cccc(-c4cnn(C5CC5)c4)c3)C(=O)[C@H]3CC[C@H](CNC(C)=O)CC3)CC2)cc1C [Compound 26.13, trans-4-(Acetamidomethyl)-N-(3-(1-cyclopropyl-1H-pyrazol-4-yl)phenyl)-N-((trans-4-(4-methoxy-3-methylphenyl)cyclohexyl)methyl) cyclohexanecarboxamide] | ≤ 250 nM
18 | COc1ccc([C@H]2CC[C@H](CN(c3cc(-c4cnn(C5CC5)c4)ccn3)C(=O)[C@H]3CC[C@H](OC(=O)N4CC(O)C4)CC3)CC2)cc1C [Compound 4.27, trans-4-((4-(1-Cyclopropyl-1H-pyrazol-4-yl)pyridin-2-yl)((trans-4-(4-methoxy-3-methylphenyl)cyclohexyl)methyl)carbamoyl)cyclohexyl 3-hydroxyazetidine-1-carboxylate] | ≤ 250 nM
19 | COc1ccc([C@H]2CC[C@H](CN(c3cccc(-c4cnc(C5CC5)s4)c3)C(=O)[C@H]3CC[C@H](NC(=O)Cn4ccnc4)CC3)CC2)cc1C [Compound 27.03, trans-4-(2-(1H-Imidazol-1-yl)acetamido)-N-(3-(2-cyclopropylthiazol-5-yl)phenyl)-N-((trans-4-(4-methoxy-3-methylphenyl)cyclohexyl)methyl)cyclohexanecarboxamide] | 250 to 1000 nM
20 | CN(C)c1ccc(C23CCC(CN(c4cccc(-c5cnc(C6CC6)s5)c4)C(=O)[C@H]4CC[C@H](C(=O)O)CC4)(CC2)CC3)cn1 [Compound 17.06, trans-4-((3-(2-Cyclopropylthiazol-5-yl)phenyl)((4-(6-(dimethylamino)pyridin-3-yl)bicyclo[2.2.2]octan-1-yl)methyl)carbamoyl) cyclohexanecarboxylic acid] | ≤ 250 nM
